Laboratory results published in PMC12177781, “Chalcogen Derivatives for the Treatment of African Trypanosomiasis: Biological Evaluation of Thio- and Seleno-Semicarbazones and Their Azole Derivatives” (ACS Omega, 2025).
Where “and” joins values, the source holds several entries; their conditions need not be identical. Equal entries are not always repeated.

Columns and labels:
[1] = system: T. brucei brucei Lister 427; experiment: T. b. brucei Lister 427 bloodstream-form growth inhibition, SYBR Green viability assay, 72 h; format: cell-based, Trypanosoma brucei brucei; settings: for T. brucei inhibition (%): growth inhibition at 10 µM, ± SD
in vitro [2] = settings: human, CC50 HepG2 (μM)
T. cruzi CAI/72 = settings: cited from earlier work
C2C12 cells = settings: read-out: Toxicity CC50 C2C12 cells; cited from earlier work
HEK293 cells [3] = settings: human
[4] = DPPH radical scavenging (antioxidant) assay; settings: after 2 h, mean ± SEM
[5] = molecular target: T. brucei cathepsin L-like protease (TbrCATL) (Trypanosoma brucei rhodesiense, UniProt Q95PM0); experiment: TbrCATL inhibition assay, Z-FR-AMC substrate; format: biochemical; settings: for SI TbrCATL: IC50 hCatL/IC50 TbrCATL
Chain of T. brucei cathepsin L-like protease (TbrCATL) (Q95PM0 1-450): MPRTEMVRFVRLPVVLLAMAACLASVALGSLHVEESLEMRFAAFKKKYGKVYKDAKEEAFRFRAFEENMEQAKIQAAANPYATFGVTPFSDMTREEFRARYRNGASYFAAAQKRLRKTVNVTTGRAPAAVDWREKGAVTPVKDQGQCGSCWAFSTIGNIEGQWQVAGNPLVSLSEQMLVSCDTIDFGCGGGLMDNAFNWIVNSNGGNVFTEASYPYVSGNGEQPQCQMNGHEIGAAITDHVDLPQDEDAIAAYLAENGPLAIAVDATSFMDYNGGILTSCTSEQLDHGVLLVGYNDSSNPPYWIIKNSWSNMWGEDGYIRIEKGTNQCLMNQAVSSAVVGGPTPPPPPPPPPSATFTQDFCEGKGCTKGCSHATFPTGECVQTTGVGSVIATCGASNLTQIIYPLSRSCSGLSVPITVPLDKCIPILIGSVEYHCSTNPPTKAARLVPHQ
Experimental: (§1) All experiments were performed in a 384-well black microplate, using a Synergy HTX (Biotek) plate reader at 25 °C with absorption/emission wavelengths of 360/460 nm. Assays were performed in triplicate wells and DMSO was used as a vehicle control. Enzyme activity was measured and normalized to DMSO controls, and the inhibitor E-64 (10 μM) was used as a positive control for all assays. Experiments were performed in triplicate, with at least two independent assays (n = 6 data points). IC50 values were determined through nonlinear regression. The data obtained were analyzed using GraphPad Prism 9.0 (GraphPad Software, La Jolla, California, US).
The screening assay was performed using 0.5 nM of TbrCATL diluted in 0.1 M sodium acetate, 1 mM dithiothreitol (DTT), and 0.01% Triton X-100, pH 5.5. TbrCATL was expressed and purified as described. Enzyme the compound (10 μM), were incubated for 10 min at room temperature. Then the substrate, Z-Phe-Arg-amidomethylcoumarin (Z-FR-AMC; Sigma-Aldrich, C9521), was added (30 μL diluted in the same assay buffer) to yield a final concentration of 2.5 μM and the assay allowed to proceed for 10 min. […] For those compounds inhibiting enzyme activity by >85%, DR assays were performed over 15 2-fold serial dilutions starting at 0.5 or 20 μM.

cruzain (Cz) = settings: cited from earlier work
[6] = molecular target: T1, human cathepsin L (hCatL) (Homo sapiens, UniProt P07711); experiment: hCatL inhibition assay, Z-FR-AMC substrate; format: biochemical; settings: mean ± SD, two experiments in triplicate (n = 6)
T1 construct: purchased R&D Systems 952-CY
T1 sequence (P07711 114-333): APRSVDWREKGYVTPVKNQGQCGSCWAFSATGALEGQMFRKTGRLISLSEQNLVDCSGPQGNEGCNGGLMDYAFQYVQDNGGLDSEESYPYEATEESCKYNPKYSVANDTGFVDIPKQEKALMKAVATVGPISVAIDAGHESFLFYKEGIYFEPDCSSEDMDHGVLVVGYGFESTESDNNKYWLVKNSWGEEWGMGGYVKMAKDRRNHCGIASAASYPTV
Experimental: as §1
Recombinant hCatL was purchased from R&D Systems (952-CY) and activated according to the manufacturers protocol. This enzyme, hCatL, is used to test compounds’ selectivity because it is the human homologue of TbrCATL. The assay was modified from, using 25 pM of the enzyme diluted in 40 mM sodium acetate, 5 mM DTT, 100 mM NaCl, 1 mM EDTA and 0.01% Triton X-100, pH 5.5. Enzyme and compound (10 μM), were incubated for 30 min at room temperature. Then Z-FR-AMC was added (30 μL diluted in the same assay buffer) to yield a final concentration of 25 μM and the assay allowed to proceed for 10 min. DR assays were performed over 15 2-fold serial dilutions starting at 0.5 or 20 μM.

HepG2 cells [7] = experiment: HepG2 cytotoxicity, CellTiter-Glo, 48 h; settings: Homo sapiens, HepG2, read-out: HepG2 inhibition (%)
HEK293 cells [8] = experiment: HEK293 cytotoxicity, CellTiter-Glo, 48 h; settings: Homo sapiens, HEK293, read-out: HEK293 inhibition (%)
in vitro [9] = settings: human, CC50 HEK293 (μM)
HepG2 cells [10] = settings: human
TbrCATL = settings: cited from earlier work
hCatL = settings: E-64, from ref. (number not given); cited from earlier work

## C/C(=N\NC(N)=[Se])c1ccc(Br)cc1 [SeO3]
[1]; Trypanosoma brucei, three independent experiments in duplicate (n = 6) ± SD, read-out: EC50 T. brucei
  EC50: 470 ± 20 nM
[1]; 10 µM
  T. brucei inhibition (%): 100 ± 2%
[1]; listed as Se O3, 10 µM
  T. brucei inhibition (%): > 70%
In vitro [2]
  CC50: 2.82 µM
T. cruzi CAI/72
  EC50: 770 ± 170 nM
C2C12 cells
  CC50: > 10000 nM
HEK293 cells [3]
  CC50: 2820 ± 110 nM
[4]; 0.015 mg/ml
  % inhibited DPPH: 23.00 ± 13.43%
[4]; 0.03 mg/ml
  % inhibited DPPH: 75.00 ± 2.65%
[4]; 0.06 mg/ml
  % inhibited DPPH: 77.67 ± 1.45%
[5]; IC50 TbrCATL (nM), mean ± SD, two experiments in triplicate (n = 6)
  IC50: 9.87 nM and 1.22 nM
[5]
  SI TbrCATL: 8
[5]; at 10 μM
  TbrCATL inhibition (%): 99.15%
[5]; read-out: TbrCATL inhibition (%), at 10 μM
  inhibition at 10 µM: > 85%
Cruzain (Cz)
  IC50: 14.3 ± 3.57 nM
[6]
  IC50: 9.87 ± 0.63 nM
HepG2 cells [7]
  inhibition at 10 µM: 71 ± 15%
HEK293 cells [8]
  inhibition at 10 µM: 100%
In vitro [9]
  CC50: 2.7 µM
HepG2 cells [10]
  CC50: 2700 ± 160 nM

## CC(C)C[C@H](NC(=O)[C@H]1O[C@@H]1C(=O)O)C(=O)NCCCCN=C(N)N [Compound E-64, E-64]
TbrCATL
  IC50: 3.1 nM
[5]
  SI TbrCATL: 10
hCatL
  IC50: 30 ± 4 nM
